pIC50: −log10 of the molar value. Read-outs that look alike come from different tables or passages of the source.
Tested on: IL1-β release upon NLRP3 activation in peripheral blood mononuclear cells (PBMC)
Assay: PBMC IC50 determination assay (IL1-β release, ELISA)
Assay type: cell-based
Conditions: Homo sapiens; for IC50: PBMC, read-out: PBMCs, IC50, µM; for pIC50: PBMC primed 3 h with LPS, compound 30 min, nigericin (10 µM) 1 h, IL1-β in media by ELISA, values with * are mean values based on 2-6 measurements, all others single measurements, read-out: PBMCs, IC50
Method: PBMC IC50 determination assay
The compounds of the present invention were tested for their inhibitory activity against IL1-β release upon NLRP3 activation in peripheral blood mononuclear cells (PBMC).
PBMC were isolated from buffy coats by density gradient centrifugation on Histopaque-1077 (Sigma, cat no. 10771). Isolated cells were seeded into the wells of a 96-well plate and incubated for 3 h with lipopolysaccharide (LPS). Following medium exchange, the compounds of the present invention were added (a single compound per well) and the cells were incubated for 30 min. Next, the cells were stimulated with nigericin (10 µM) for 1 h and the cell culture media from the wells were collected for further analysis.
The release of IL1-β into the media was determined by a quantitative detection of IL1-β in the media using an IL-1β enzyme-linked immunosorbent assay (ELISA) Ready-SET-Go!, eBioscience cat. No. 88-7261-88. Briefly, in a first step, high affinity binding plates (Coming, Costar 9018 or NUNC Maxisorp Cat No. 44-2404) were coated overnight at 4°C with specific capture antibody included in the kit (anti-human IL-1β ref. 14-7018-68). Subsequently, plates were blocked with blocking buffer for 1 h at room temperature (rt) and after washing with a buffer (PBS with 0,05% Tween-20) incubated with protein standard and culture media. After 2 h of incubation at rt, plates were washed and incubated with biotinylated detection antibody included in the kit (anti-human IL-1β Biotin ref. 33-7110-68) for 1 h at rt. Plates were washed and incubated with HRP-streptavidin for 30 min at rt and washed again. The signal was developed after addition of 3,39,5,59-tetramethylbenzidine-peroxidase (TMB) until color appeared and the reaction was stopped by 2 N H2SO4. A microplate spectrophotometer (BioTek) was used to detect signals with […]. The detection range of IL1-β ELISA was […].

O=C(Nc1c2c(cc3c1CCC3)CCC2)NS(=O)(=O)n1ccc2ccncc21 [Example 1H]
IC50: 4.93 µM

O=C(Nc1c2c(cc3c1CCC3)CCC2)NS(=O)(=O)n1ccc(C(=O)c2ccccc2)c1 [Example 1P]
IC50: 2.91 µM

COC(=O)c1ccn(S(=O)(=O)NC(=O)Nc2c3c(cc4c2CCC4)CCC3)c1 [Example 1C]
IC50: 4.07 µM

CC(=O)c1ccn(S(=O)(=O)NC(=O)Nc2c3c(c(Cl)c4c2CCC4)CCC3)c1 [Example 1I]
IC50: 0.91 µM

O=C(Nc1c2c(cc3c1CCC3)CCC2)NS(=O)(=O)n1ccc(C2CC2)c1 [Example 1F]
IC50: 0.4 µM

O=C(Nc1c2c(cc3c1CCC3)CCC2)NS(=O)(=O)n1ccc(C(=O)C(F)(F)F)c1 [Example 1L]
IC50: 0.074 µM

O=C(Nc1c2c(cc3c1CCC3)CCC2)NS(=O)(=O)n1ccc2ncccc21 [Example 1D]
IC50: 10.5 µM

CC(O)c1ccn(S(=O)(=O)NC(=O)Nc2c3c(cc4c2CCC4)CCC3)c1 (stereo not shown) [Example 2A, 3-(1,2,3,5,6,7-hexahydro-s-indacen-4-yl)-1-{[3-(1-hydroxyethyl)-1H-pyrrol-1-yl]sulfonyl}urea]
pIC50: 5.71

CC(=O)c1ccn(S(=O)(=O)NC(=O)Nc2c3c(cc4c2CCC4)CCC3)c1 [Example 1B]
IC50: 1.27 µM

O=C(Nc1c2c(cc3c1CCC3)CCC2)NS(=O)(=O)n1ccc(C(O)C(F)(F)F)c1 (stereo not shown) [Example 2B, 3-(1,2,3,5,6,7-hexahydro-s-indacen-4-yl)-1-{[3-(2,2,2-trifluoro-1-hydroxyethyl)-1H-pyrrol-1-yl]sulfonyl}urea]
pIC50: 6.01

O=C(Nc1cc2c(c3c1CCCC3)CCC2)NS(=O)(=O)n1ncc2ccccc21 [Example 1N, 3-{1H,2H,3H,6H,7H,8H,9H -cyclopenta[a]naphthalen-5-yl}-1-(H-indazole-1-sulfonyl)-1-sodiourea]
IC50: 2.03 µM

O=C(Nc1cc2c(c3c1CCC3)CCC2=O)NS(=O)(=O)n1ccc(C(=O)C(F)(F)F)c1 [Example 1U, ammonium [(6-oxo-1,2,3,6,7,8-hexahydroas-indacen-4-yl)carbamoyl]({[3-(trifluoroacetyl)-1H-pyrrol-1-yl]sulfonyl})azanide]
pIC50: 5.74

O=C(Nc1cc2c(c3c1CCC3)CCC2)NS(=O)(=O)n1ccc(C(=O)C(F)(F)F)c1 [Example 1Q]
IC50: 0.33 µM

O=C(Nc1c2c(cc3c1CCC3)CCC2)NS(=O)(=O)n1ccc([N+](=O)[O-])c1 [Example 1J]
IC50: 26.8 µM

CC(C)(O)c1ccn(S(=O)(=O)NC(=O)Nc2c3c(cc4c2CCC4)CCC3)c1 [Example 3A]
IC50: 0.66 µM

CCC(=O)c1ccn(S(=O)(=O)NC(=O)Nc2c3c(cc4c2CCC4)CCC3)c1 [Example 1G]
IC50: 5 µM

O=C(Nc1c2c(cc3c1CCC3)CCC2)NS(=O)(=O)n1ccc2ccccc21 [Example 1A]
IC50: 1.05 µM

O=C(Nc1c2c(cc3c1CCC3)CCC2)NS(=O)(=O)n1cc2c(c1)C(=O)CC2 [Example 1O]
IC50: 4.13 µM

O=C(Nc1c2c(cc3c1CCC3)CCCC2)NS(=O)(=O)n1ncc2ccccc21 [Example 1M]
IC50: 4.62 µM

C=C(C)c1ccn(S(=O)(=O)NC(=O)Nc2c3c(cc4c2CCC4)CCC3)c1 [Example 4A, 3-(1,2,3,5,6,7-hexahydro-s-indacen-4-yl)-1-{[3-(prop-1-en-2-yl)-1H-pyrrol-1-yl]sulfonyl}urea]
pIC50: 6.09

O=C(Nc1c2c(cc3c1CCC3)CCC2)NS(=O)(=O)n1ncc2ccccc21 [Example 1E]
IC50: 1 µM

CC(=O)c1cn(S(=O)(=O)NC(=O)Nc2c3c(cc4c2CCC4)CCC3)cc1-c1ccccc1 [Example 1T, 3=[(3-acetyl-4-phenyl-1H-pyrrol-1-yl)sulfonyl]-1-(1,2,3,5,6,7-hexahydro-s-indacen-4-yl)-3-sodiourea propan-2-ol solvate]
IC50: 4.76 µM

O=C(Nc1c2c(cc3c1CCC3)CCC2)NS(=O)(=O)n1cccc1 [Example 1K]
IC50: 1.4 µM

O=C(Nc1c2c(cc3c1CCC3)CCC2)NS(=O)(=O)n1cc2c(c1)C(=O)CCC2 [Example 1R, ammonium [(1,2,3,5,6,7-hexahydro-s-indacen-4-yl)carbamoyl][(4-oxo-4,5,6,7-tetrahydro-2H-isoindol-2-yl)sulfonyl]azanide]
pIC50: 5.90

Cc1cccn1S(=O)(=O)NC(=O)Nc1c2c(cc3c1CCC3)CCC2 [Example 1S, ammonium [(1,2,3,5,6,7-hexahydro-s-indacen-4-yl)carbamoyl][(2-methyl-1H-pyrrol-1-yl)sulfonyl]azanide]
pIC50: 6.57
